The target of experiment [1] is T1, human soluble TNFR1 (sTNFR1) (Homo sapiens, UniProt P19438).
T1 construct: made in house; host or cells: Sf21 (baculovirus)
T1 sequence (P19438 with tags, fused parts or gaps): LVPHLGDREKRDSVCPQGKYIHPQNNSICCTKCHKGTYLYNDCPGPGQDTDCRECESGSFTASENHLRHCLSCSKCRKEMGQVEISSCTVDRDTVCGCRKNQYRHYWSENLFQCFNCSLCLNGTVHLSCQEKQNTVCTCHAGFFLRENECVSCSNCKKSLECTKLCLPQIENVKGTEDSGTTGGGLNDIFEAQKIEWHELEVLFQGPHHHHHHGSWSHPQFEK
In words: Human sTNFR1-peptide displacement assay (LanthaScreen Eu TR-FRET binding assay). In outline: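 Readout is the 665/615 nm TR-FRET ratio (Eu anti-His donor, streptavidin-Alexa647 acceptor), normalized to DMSO and saturating displacer, fit by Morrison-based five-parameter logistic for Kd^app. His-tagged sTNFR1 (1-211) prebound to 100 nM biotinylated peptide SEQ ID NO.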

The target in the next experiment is T2, human TNFR2 ECD protein (Homo sapiens, UniProt P20333).
T2 construct: HRV 3C protease cleavage site (C); 6His (C, cleaved yes); made in house; host or cells: Sf21 insect cells (baculovirus), secreted
T2 sequence (P20333 23-257): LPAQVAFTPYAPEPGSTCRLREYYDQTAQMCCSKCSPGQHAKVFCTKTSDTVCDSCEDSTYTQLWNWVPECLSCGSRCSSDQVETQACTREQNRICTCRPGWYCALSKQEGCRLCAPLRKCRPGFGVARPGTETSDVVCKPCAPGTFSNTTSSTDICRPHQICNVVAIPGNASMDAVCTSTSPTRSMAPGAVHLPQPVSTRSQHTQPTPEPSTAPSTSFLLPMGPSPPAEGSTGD
In words: SPR off-target binding (selectivity) to human TNFR2 ECD. In short, it runs like this: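 SPR kinetics: peptides over captured avi-biotinylated receptor ECDs, TNFR1 for affinity, TNFR2 run in parallel for off-target binding. Running buffer HEPES pH 7.4 with 150 mM NaCl, 3 mM EDTA, 0.05% P20, 2% DMSO; surface regenerated between analytes. Affinity derived from kon/koff.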

pIC50, pKd: −log10 of the molar value. Bridge positions count the residues as written; N and C are the ends. Square brackets hold non-standard residues; d marks the D form. Peptide text beside a SMILES is read from it. Trp(βS-Me,7-OMe) = COc1cccc2c([C@H](C)[C@H](N)C(=O)O)c[nH]c12; Trp(βS-Me) = C[C@@H](c1c[nH]c2ccccc12)[C@H](N)C(=O)O; Phe(4-CH2COOH) = N[C@@H](Cc1ccc(CC(=O)O)cc1)C(=O)O; Trp(7-Cl) = N[C@@H](Cc1c[nH]c2c(Cl)cccc12)C(=O)O; Phe(4-CONH2) = NC(=O)c1ccc(C[C@H](N)C(=O)O)cc1; Phe(4-COOH) = N[C@@H](Cc1ccc(C(=O)O)cc1)C(=O)O; Trp(7-aza) = N[C@@H](Cc1c[nH]c2ncccc12)C(=O)O; Phe(4-CH2NH2) = NCc1ccc(C[C@H](N)C(=O)O)cc1; dPro(cis-4-NH2) = N[C@H]1CN[C@@H](C(=O)O)C1; N(CH2CH2COOH)Gly = O=C(O)CCNCC(=O)O; Pip(4-aza) = O=C(O)[C@@H]1CNCCN1; 4Pal = N[C@@H](Cc1ccncc1)C(=O)O; NMeE = CN[C@@H](CCC(=O)O)C(=O)O; Cit = NC(=O)NCCC[C@H](N)C(=O)O; Pip = O=C(O)[C@@H]1CCCCN1; αMeS = C[C@](N)(CO)C(=O)O; Nle = CCCC[C@H](N)C(=O)O; Sar = CNCC(=O)O Some results are limits rather than exact numbers.

The pIC50 is the negative decadic logarithm of the IC50, by convention in mol/L. Low readings indicate a high IC50, high ones a low IC50. One may read the pKd as the negative decadic logarithm of the Kd, by convention in mol/L. Higher therefore signals a small Kd.

In experiment [1], `CCCC[C@@H]1NC(=O)CSC[C@@H](C(N)=O)NC(=O)[C@H]([C@@H](C)c2c[nH]c3c(OC)cccc23)NC(=O)CN(C)C(=O)[C@H](Cc2ccc(O)cc2)NC(=O)[C@H](Cc2ccc(C(=O)O)cc2)NC(=O)[C@](C)(CO)NC(=O)[C@H](Cc2c[nH]c3c(Cl)cccc23)NC(=O)[C@H](Cc2ccc(CC(=O)O)cc2)NC(=O)[C@H](CC(N)=O)NC(=O)[C@H](CCC(=O)O)N(C)C(=O)[C@H](Cc2c[nH]c3ccccc23)NC(=O)[C@@H]2CCCCN2C(=O)[C@H](Cc2ccncc2)NC1=O` [SEQ ID NO. 212] ({CH2CO}-[Nle][4Pal][Pip]W[NMeE]N[Phe(4-CH2COOH)][Trp(7-Cl)][αMeS][Phe(4-COOH)]Y[Sar][Trp(βS-Me,7-OMe)]C-NH2; thioether N-14) gave a pIC50 of 9.05. In addition, the pKd is 9.14 in experiment [1] and < 6.00 on human TNFR2 ECD protein.
Regarding `C[C@@H](c1c[nH]c2ccccc12)[C@@H]1NC(=O)CN(C)C(=O)[C@H](Cc2c[nH]cn2)NC(=O)[C@H](Cc2ccc(C(=O)O)cc2)NC(=O)[C@](C)(CO)NC(=O)[C@H](Cc2c[nH]c3c(Cl)cccc23)NC(=O)[C@H](Cc2ccc(C(=O)O)cc2)NC(=O)[C@H](CC(N)=O)NC(=O)[C@H]2CCCN2C(=O)[C@H]([C@@H](C)c2c[nH]c3ccccc23)NC(=O)[C@H](CO)NC(=O)[C@H](Cc2ccc(CN)cc2)NC(=O)[C@H](CCCNC(N)=O)NC(=O)CSC[C@@H](C(N)=O)NC1=O` [SEQ ID NO. 215] ({CH2CO}-[Cit][Phe(4-CH2NH2)]S[Trp(βS-Me)][dP]N[Phe(4-COOH)][Trp(7-Cl)][αMeS][Phe(4-COOH)]H[Sar][Trp(βS-Me)]C-NH2; thioether N-14), in experiment [1], the negative-log IC50 (pIC50) was 8.55. Also, the pKd at human TNFR2 ECD protein is < 6.00.
The like results for `CCCC[C@@H]1NC(=O)CSC[C@@H](C(N)=O)NC(=O)[C@H]([C@@H](C)c2c[nH]c3c(OC)cccc23)NC(=O)CN(C)C(=O)[C@H](Cc2ccc(O)cc2)NC(=O)[C@H](Cc2ccc(C(=O)O)cc2)NC(=O)[C@](C)(CO)NC(=O)[C@H](Cc2c[nH]c3c(Cl)cccc23)NC(=O)[C@H](Cc2ccc(OC)cc2)NC(=O)[C@H](CC(N)=O)NC(=O)[C@H](CCC(=O)O)N(C)C(=O)[C@H](Cc2c[nH]c3ccccc23)NC(=O)[C@@H]2CNCCN2C(=O)[C@H](Cc2ccncc2)NC1=O` [SEQ ID NO. 218] ({CH2CO}-[Nle][4Pal][Pip(4-aza)]W[NMeE]NY(Me)[Trp(7-Cl)][αMeS][Phe(4-COOH)]Y[Sar][Trp(βS-Me,7-OMe)]C-NH2; thioether N-14) were, in that order, 8.94 and < 6.00.
In experiment [1], `CCCC[C@@H]1NC(=O)CSC[C@@H](C(N)=O)NC(=O)[C@H]([C@@H](C)c2c[nH]c3c(OC)cccc23)NC(=O)CN(C)C(=O)[C@H](Cc2ccc(O)cc2)NC(=O)[C@H](Cc2ccc(C(N)=O)cc2)NC(=O)[C@](C)(CO)NC(=O)[C@H](Cc2c[nH]c3c(Cl)cccc23)NC(=O)[C@H](Cc2ccncc2)NC(=O)[C@H](CC(N)=O)NC(=O)[C@H]2C[C@@H](N)CN2C(=O)[C@H](Cc2c[nH]c3ncccc23)NC(=O)[C@@H]2CNCCN2C(=O)[C@H](Cc2ccncc2)NC1=O` [SEQ ID NO. 219] ({CH2CO}-[Nle][4Pal][Pip(4-aza)][Trp(7-aza)][dPro(cis-4-NH2)]N[4Pal][Trp(7-Cl)][αMeS][Phe(4-CONH2)]Y[Sar][Trp(βS-Me,7-OMe)]C-NH2; thioether N-14) had a pIC50 of 9.52 and a pKd of 9.82. Besides, on human TNFR2 ECD protein, the pKd was < 6.00.
As to `CCCC[C@@H]1NC(=O)CSC[C@@H](C(N)=O)NC(=O)[C@H]([C@@H](C)c2c[nH]c3c(OC)cccc23)NC(=O)CN(C)C(=O)[C@H](Cc2ccc(O)cc2)NC(=O)[C@H](Cc2ccc(C(=O)O)cc2)NC(=O)[C@](C)(CO)NC(=O)[C@H](Cc2c[nH]c3c(Cl)cccc23)NC(=O)[C@H](Cc2ccncc2)NC(=O)[C@H](CC(N)=O)NC(=O)CN(CCC(=O)O)C(=O)[C@H](Cc2c[nH]c3ncccc23)NC(=O)[C@@H]2CCCCN2C(=O)[C@H](Cc2ccncc2)NC1=O` [SEQ ID NO. 220] ({CH2CO}-[Nle][4Pal][Pip][Trp(7-aza)][N(CH2CH2COOH)Gly]N[4Pal][Trp(7-Cl)][αMeS][Phe(4-COOH)]Y[Sar][Trp(βS-Me,7-OMe)]C-NH2; thioether N-14), the figures for the pKd (in experiment [1]; on human TNFR2 ECD protein) were 9.26 and < 6.00, respectively.

Values taken from US20240287138A1, “CYCLIC PEPTIDES FOR INHIBITING TNF RECEPTOR 1 ACTIVITY” (Merck Sharp & Dohme LLC, priority 2023, published 2024).
